According to ChEMBL document CHEMBL4376853, “Synthesis and structure-activity relationship studies of α-naphthoflavone derivatives as CYP1B1 inhibitors” (Eur J Med Chem, 2020):

Legend:
[1] = molecular target: T1, Cytochrome P450 1B1 (Homo sapiens, UniProt Q16678); test: Inhibition of human recombinant CYP1B1 using 7-ethoxyresorufin as substrate in presence of glucose-6-phosphate, glucose-6-phosphate dehydrogenase and NADPH-generating system incubated for 35 mins by fluorometry
T1 sequence (Q16678 whole entry): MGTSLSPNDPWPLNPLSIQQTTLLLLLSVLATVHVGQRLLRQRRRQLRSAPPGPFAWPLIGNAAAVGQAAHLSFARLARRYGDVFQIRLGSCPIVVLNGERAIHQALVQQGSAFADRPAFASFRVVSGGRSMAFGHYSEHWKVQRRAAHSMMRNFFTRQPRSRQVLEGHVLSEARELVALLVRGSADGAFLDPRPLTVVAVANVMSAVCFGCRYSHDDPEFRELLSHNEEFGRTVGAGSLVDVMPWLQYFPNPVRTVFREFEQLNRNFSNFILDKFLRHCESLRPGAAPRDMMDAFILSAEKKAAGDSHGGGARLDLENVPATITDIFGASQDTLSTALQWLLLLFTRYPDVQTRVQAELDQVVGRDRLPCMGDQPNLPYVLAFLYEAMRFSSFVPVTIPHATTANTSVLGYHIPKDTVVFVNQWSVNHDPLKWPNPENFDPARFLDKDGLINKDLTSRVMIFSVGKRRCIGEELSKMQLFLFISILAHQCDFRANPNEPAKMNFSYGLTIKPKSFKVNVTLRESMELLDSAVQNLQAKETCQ

[2] = molecular target: T2, Cytochrome P450 1A1 (Homo sapiens, UniProt P04798); test: Inhibition of human recombinant CYP1A1 using 7-ethoxyresorufin as substrate in presence of glucose-6-phosphate, glucose-6-phosphate dehydrogenase and NADPH-generating system incubated for 15 mins by fluorometry; type: ADME
T2 sequence (P04798 whole entry): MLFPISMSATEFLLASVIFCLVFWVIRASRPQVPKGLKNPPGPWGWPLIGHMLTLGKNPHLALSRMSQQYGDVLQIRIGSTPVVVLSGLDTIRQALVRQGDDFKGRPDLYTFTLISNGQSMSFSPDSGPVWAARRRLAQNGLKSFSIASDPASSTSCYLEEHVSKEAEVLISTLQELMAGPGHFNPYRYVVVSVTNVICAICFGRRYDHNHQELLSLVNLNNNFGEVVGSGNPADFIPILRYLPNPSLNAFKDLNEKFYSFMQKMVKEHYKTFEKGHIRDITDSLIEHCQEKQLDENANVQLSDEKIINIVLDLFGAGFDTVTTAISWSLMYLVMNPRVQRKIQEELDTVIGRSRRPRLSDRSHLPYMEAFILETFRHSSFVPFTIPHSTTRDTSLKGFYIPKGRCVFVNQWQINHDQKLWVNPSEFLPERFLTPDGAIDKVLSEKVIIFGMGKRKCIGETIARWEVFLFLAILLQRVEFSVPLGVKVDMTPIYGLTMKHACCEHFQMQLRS

[3] = species: Homo sapiens; test: Selectivity index, ratio of IC50 for human recombinant CYP1A1 to IC50 for human recombinant CYP1B1 using 7-ethoxyresorufin as substrate in presence of glucose-6-phosphate, glucose-6-phosphate dehydrogenase and NADPH-generating system by fluorometry
[4] = molecular target: T1, Cytochrome P450 1B1; test: Potency index, ratio of IC50 for ANF to IC50 for test compound for inhibition of human recombinant CYP1B1 using 7-ethoxyresorufin as substrate in presence of glucose-6-phosphate, glucose-6-phosphate dehydrogenase and NADPH-generating system incubated for 35 mins by fluorometry
[5] = species: Homo sapiens; test: Selectivity index, ratio of IC50 for human recombinant CYP1A2 to IC50 for human recombinant CYP1B1 using 7-ethoxyresorufin as substrate in presence of glucose-6-phosphate, glucose-6-phosphate dehydrogenase and NADPH-generating system by fluorometry
[6] = molecular target: T3, Cytochrome P450 1A2 (Homo sapiens, UniProt P05177); test: Inhibition of human recombinant CYP1A2 using 7-ethoxyresorufin as substrate in presence of glucose-6-phosphate, glucose-6-phosphate dehydrogenase and NADPH-generating system incubated for 50 mins by fluorometry; type: ADME
T3 sequence (P05177 whole entry): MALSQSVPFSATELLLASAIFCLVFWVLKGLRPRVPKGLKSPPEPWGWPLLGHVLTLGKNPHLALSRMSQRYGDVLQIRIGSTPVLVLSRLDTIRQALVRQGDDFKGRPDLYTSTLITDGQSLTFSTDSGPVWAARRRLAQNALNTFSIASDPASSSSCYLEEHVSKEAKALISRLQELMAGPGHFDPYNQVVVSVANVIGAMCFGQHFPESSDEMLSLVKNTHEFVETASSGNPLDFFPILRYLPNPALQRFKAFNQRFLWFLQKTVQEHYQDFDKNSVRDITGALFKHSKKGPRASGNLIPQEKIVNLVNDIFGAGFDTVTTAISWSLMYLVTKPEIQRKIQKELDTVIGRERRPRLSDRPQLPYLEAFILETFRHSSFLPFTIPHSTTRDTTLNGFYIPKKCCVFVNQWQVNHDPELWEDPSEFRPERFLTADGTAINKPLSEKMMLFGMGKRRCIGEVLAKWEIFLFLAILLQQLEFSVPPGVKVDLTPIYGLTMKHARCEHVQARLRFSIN

[7] = Aqueous solubility of the compound; type: physicochemical; conditions: buffer

Row | IC50 [1] | IC50 [2] | Ratio IC50 [3] | Ratio IC50 [5] | IC50 [6] | solubility [7] | SMILES | relative potency vs ANF (IC50 ratio) at 35 min [4] | selectivity ratio at 35 min ([4]; read-out: Ratio IC50)
1 | 1.6 nM | 9.6 nM | 6 | 33.3 | 53.2 nM | – | S=c1cc(-c2ccc(Cl)cc2)oc2c1ccc1ccccc12 | 3 | –
2 | 2 nM | 30.9 nM | 15.5 | 159 | 318 nM | – | O=c1cc(-c2cccc(N3CCOCC3)c2)oc2c1ccc1ccccc12 | – | 3
3 | 63.8 nM | 153 nM | 2.4 | – | > 1000 nM | > 20 mg/mL | CN1CCN(c2ccc(-c3cc(=O)c4ccc5ccccc5c4o3)cc2)CC1 | – | –
4 | 0.49 nM | 5.2 nM | 10.6 | 150 | 73.6 nM | – | O=c1cc(-c2cccc(Cl)c2)oc2c1ccc1ccccc12 | 12 | –
